≈ marks a conversion by molar mass, not a printed value.
Columns and labels:
C. tropicalis ATCC 750 = experiment: Antifungal susceptibility, broth dilution MIC (CLSI M27-A2); format: cell-based, Candida tropicalis; settings: Candida tropicalis, ATCC750; C. tropicalis ATCC 750; broth dilution, RPMI 1640 with MOPS, 48 hours; read-out: Activity against organisms (MIC50) Ct01
Description: (§1) The compounds of Formula 1 were tested for antifungal activity against Candida albicans, C. glabrata, C. krusei, C. tropicalis, Cryptococcus neoformans, Aspergillus fumigatus, A. niger and Fusarium proliferatum. In vitro evaluation of antifungal activity was performed by determining the minimum inhibitory concentration (MIC) following standard methods (CLSI: Reference method for broth dilution antifungal susceptibility testing of yeasts; Approved standard, second edition M27-A2, 2002; CLSI: Reference method for broth dilution antifungal susceptibility testing of filamentous fungi; Approved standard M38-A, 2002). Anti-fungal susceptibility testing of these anti-fungal compounds was done by broth dilution method using RPMI 1640 medium with MOPS buffer. Known anti-fungal agent fluconazole was used as positive control. End points were determined after 48 hours visually and by using spectrophotometer wherever necessary. Different dilutions were tried and various sets of experiments performed. The activity parameters are enumerated in Table 4.

C. glabrata ATCC 90030 = experiment: as above; format: cell-based, Candida glabrata; settings: Nakaseomyces glabratus, ATCC90030; C. glabrata ATCC 90030; broth dilution, RPMI 1640 with MOPS, 48 hours; read-out: Activity against organisms (MIC50) Cg01
Description: as §1

C. krusei ATCC 6258 = experiment: as above; format: cell-based, Candida krusei; settings: Pichia kudriavzevii, ATCC6258; C. krusei ATCC 6258; broth dilution, RPMI 1640 with MOPS, 48 hours; read-out: Activity against organisms (MIC50) Ck01
Description: as §1

C. albicans ATCC 24433 = experiment: as above; format: cell-based; settings: Candida albicans, ATCC24433; C. albicans ATCC 24433; broth dilution, RPMI 1640 with MOPS, 48 hours; read-out: Activity against organisms (MIC50) Ca01
Description: as §1

C. neoformans ATCC 34664 = experiment: as above; format: cell-based, Cryptococcus neoformans; settings: Cryptococcus neoformans, ATCC34664; C. neoformans ATCC 34664; broth dilution, RPMI 1640 with MOPS, 48 hours; read-out: Activity against organisms (MIC50) Cn01
Description: as §1

A. fumigatus ATCC 46645 = experiment: Antifungal susceptibility, broth dilution MIC (CLSI M38-A); format: cell-based; settings: Aspergillus fumigatus, ATCC46645; A. fumigatus ATCC 46645; broth dilution, RPMI 1640 with MOPS, 48 hours; read-out: Activity against organisms (MIC50) Afm01
Description: as §1

[1] = test system: F. proliferatum ATCC 10052; experiment: as above; format: cell-based; settings: Fusarium proliferatum, ATCC10052; F. proliferatum ATCC 10052; broth dilution, RPMI 1640 with MOPS, 48 hours; read-out: Activity against organisms (MIC50) Fp01
Description: as §1

A. niger ATCC 16404 = experiment: as above; format: cell-based; settings: Aspergillus niger, ATCC16404; A. niger ATCC 16404; broth dilution, RPMI 1640 with MOPS, 48 hours; read-out: Activity against organisms (MIC50) An01
Description: as §1

COc1ccc(CN2CCN(c3ccc(C(=O)/C=C/c4ccc(OCc5cn(CC(O)(Cn6cncn6)c6ccc(F)cc6F)nn5)cc4)cc3)CC2)cc1 (stereo not shown) [Compound 1B-8, (E)-3-(4-((1-(2-(2,4-Difluorophenyl)-2-hydroxy-3-(1H-1,2,4-triazol-1-yl)propyl)-1H-1,2,3-triazol-4-yl)methoxy)phenyl)-1-(4-(4-(4-methoxybenzyl)piperazin-1-yl)phenyl)prop-2-en-1-one]
MIC50 (C. tropicalis ATCC 750): 0.5 µg/mL (≈ 0.67 µM)
MIC50 (C. glabrata ATCC 90030): 0.12 µg/mL (≈ 0.161 µM)
MIC50 (C. krusei ATCC 6258): 2 µg/mL (≈ 2.68 µM)
MIC50 (C. albicans ATCC 24433): 0.12 µg/mL (≈ 0.161 µM)
MIC50 (C. neoformans ATCC 34664): 0.5 µg/mL (≈ 0.67 µM)
MIC50 (A. fumigatus ATCC 46645): > 8 µg/mL
MIC50 [1]: > 8 µg/mL
MIC50 (A. niger ATCC 16404): > 8 µg/mL

C=C=CCOc1ccc(/C=C/C(=O)/C=C/c2ccc(OCc3cn(CC(O)(Cn4cncn4)c4ccc(F)cc4F)nn3)cc2)cc1 (stereo not shown) [Compound 1B-9, (1E,4E)-1-(4-(Buta-2,3-dienyloxy)phenyl)-5-(4-((1-(2-(2,4-difluorophenyl)-2-hydroxy-3-(1H-1,2,4-triazol-1-yl)propyl)-1H-1,2,3-triazol-4-yl)methoxy)phenyl)penta-1,4-dien-3-one]
MIC50 (C. tropicalis ATCC 750): 1 µg/mL (≈ 1.57 µM)
MIC50 (C. glabrata ATCC 90030): 0.5 µg/mL (≈ 0.785 µM)
MIC50 (C. krusei ATCC 6258): 2 µg/mL (≈ 3.14 µM)
MIC50 (C. albicans ATCC 24433): 0.25 µg/mL (≈ 0.393 µM)
MIC50 (C. neoformans ATCC 34664): 0.25 µg/mL (≈ 0.393 µM)
MIC50 (A. fumigatus ATCC 46645): > 2 µg/mL
MIC50 [1]: > 2 µg/mL
MIC50 (A. niger ATCC 16404): > 2 µg/mL

O=C(/C=C/c1ccc(OCc2cn(CC(O)(Cn3cncn3)c3ccc(F)cc3F)nn2)cc1)c1ccc(OCC(O)(Cn2cncn2)c2ccc(F)cc2F)cc1 (stereo not shown) [Compound 1B-10, (E)-1-(4-(2-(2,4-Difluorophenyl)-2-hydroxy-3-(m-1,2,4-triazol-1-yl)propoxy)phenyl)-3-(4-((1-(2-(2,4-difluorophenyl)-2-hydroxy-3-(1H-1,2,4-triazol-1-yl)propyl)-1H-1,2,3-triazol-4-yl)methoxy)phenyl)prop-2-en-1-one]
MIC50 (C. tropicalis ATCC 750): 1 µg/mL (≈ 1.26 µM)
MIC50 (C. glabrata ATCC 90030): 0.5 µg/mL (≈ 0.628 µM)
MIC50 (C. krusei ATCC 6258): 2 µg/mL (≈ 2.51 µM)
MIC50 (C. albicans ATCC 24433): 0.25 µg/mL (≈ 0.314 µM)
MIC50 (C. neoformans ATCC 34664): 1 µg/mL (≈ 1.26 µM)
MIC50 (A. fumigatus ATCC 46645): > 2 µg/mL
MIC50 [1]: > 2 µg/mL
MIC50 (A. niger ATCC 16404): > 2 µg/mL

CC/C=C/c1ccc(OCc2cn(CC(O)(Cn3cncn3)c3ccc(F)cc3F)nn2)cc1 (stereo not shown) [Compound 1C-1, (E)-1-(4-((4-(But-1-en-1-yl)phenoxy)methyl)-1H-1,2,3-triazol-1-yl)-2-(2,4-difluorophenyl)-3-(1H-1,2,4-triazol-1-yl)propan-2-ol]
MIC50 (C. tropicalis ATCC 750): 0.25 µg/mL (≈ 0.536 µM)
MIC50 (C. glabrata ATCC 90030): 0.015 µg/mL (≈ 0.0322 µM)
MIC50 (C. krusei ATCC 6258): 2 µg/mL (≈ 4.29 µM)
MIC50 (C. albicans ATCC 24433): 0.03 µg/mL (≈ 0.0643 µM)
MIC50 (C. neoformans ATCC 34664): 0.12 µg/mL (≈ 0.257 µM)
MIC50 (A. fumigatus ATCC 46645): 8 µg/mL (≈ 17.1 µM)
MIC50 [1]: > 16 µg/mL
MIC50 (A. niger ATCC 16404): 8 µg/mL (≈ 17.1 µM)

CCCC/C=C/c1ccc(OCc2cn(CC(O)(Cn3cncn3)c3ccc(F)cc3F)nn2)cc1 (stereo not shown) [Compound 1C-2, (E)-2-(2,4-Difluorophenyl)-1-(4-((4-(n-hex-1-en-1-yl)phenoxy)methyl)-1H-1,2,3-triazol-1-yl)-3-(1H-1,2,4-triazol-1-yl)propan-2-ol]
MIC50 (C. tropicalis ATCC 750): 1 µg/mL (≈ 2.02 µM)
MIC50 (C. glabrata ATCC 90030): 0.06 µg/mL (≈ 0.121 µM)
MIC50 (C. krusei ATCC 6258): 2 µg/mL (≈ 4.04 µM)
MIC50 (C. albicans ATCC 24433): 0.12 µg/mL (≈ 0.243 µM)
MIC50 (C. neoformans ATCC 34664): 0.25 µg/mL (≈ 0.506 µM)
MIC50 (A. fumigatus ATCC 46645): 4 µg/mL (≈ 8.09 µM)
MIC50 [1]: > 4 µg/mL
MIC50 (A. niger ATCC 16404): 4 µg/mL (≈ 8.09 µM)

CCCCCCCCCC/C=C/c1ccc(OCc2cn(CC(O)(Cn3cncn3)c3ccc(F)cc3F)nn2)cc1 (stereo not shown) [Compound 1C-3, (E)-2-(2,4-Difluorophenyl)-1-(4-((4-(n-dodec-1-en-1-yl)phenoxy)methyl)-1H-1,2,3-triazol-1-yl)-3-(1H-1,2,4-triazol-1-yl)propan-2-ol]
MIC50 (C. tropicalis ATCC 750): > 2 µg/mL
MIC50 (C. glabrata ATCC 90030): 0.12 µg/mL (≈ 0.207 µM)
MIC50 (C. krusei ATCC 6258): > 2 µg/mL
MIC50 (C. albicans ATCC 24433): 1 µg/mL (≈ 1.73 µM)
MIC50 (C. neoformans ATCC 34664): 0.5 µg/mL (≈ 0.864 µM)
MIC50 (A. fumigatus ATCC 46645): > 2 µg/mL
MIC50 [1]: > 2 µg/mL
MIC50 (A. niger ATCC 16404): > 2 µg/mL

C/C=C/c1ccc(OCc2cn(CC(O)(Cn3cncn3)c3ccc(F)cc3F)nn2)cc1 (stereo not shown) [Compound 1C-4, (E)-2-(2,4-Difluorophenyl)-1-(4-((4-(prop-1-en-1-yl)phenoxy)methyl)-1H-1,2,3-triazol-1-yl)-3-(1H-1,2,4-triazol-1-yl)propan-2-ol]
MIC50 (C. tropicalis ATCC 750): 0.12 µg/mL (≈ 0.265 µM)
MIC50 (C. glabrata ATCC 90030): 0.06 µg/mL (≈ 0.133 µM)
MIC50 (C. krusei ATCC 6258): 8 µg/mL (≈ 17.7 µM)
MIC50 (C. albicans ATCC 24433): 0.03 µg/mL (≈ 0.0663 µM)
MIC50 (C. neoformans ATCC 34664): 0.5 µg/mL (≈ 1.11 µM)
MIC50 (A. fumigatus ATCC 46645): 32 µg/mL (≈ 70.7 µM)
MIC50 [1]: > 32 µg/mL
MIC50 (A. niger ATCC 16404): 64 µg/mL (≈ 141 µM)

OC(Cn1cncn1)(Cn1cc(COc2ccccc2)nn1)c1ccc(F)cc1F (stereo not shown) [Compound 1D-1, 2-(2,4-Difluorophenyl)-1-(4-phenyloxymethyl-1H-1,2,3-triazol-1-yl)-3-(1H-1,2,4-triazol-1-yl)propan-2-ol]
MIC50 (C. tropicalis ATCC 750): 2 µg/mL (≈ 4.85 µM)
MIC50 (C. glabrata ATCC 90030): 0.25 µg/mL (≈ 0.606 µM)
MIC50 (C. krusei ATCC 6258): > 128 µg/mL
MIC50 (C. albicans ATCC 24433): 0.25 µg/mL (≈ 0.606 µM)
MIC50 (C. neoformans ATCC 34664): 4 µg/mL (≈ 9.7 µM)
MIC50 (A. fumigatus ATCC 46645): > 128 µg/mL
MIC50 [1]: > 128 µg/mL
MIC50 (A. niger ATCC 16404): > 128 µg/mL

O=Cc1ccc(OCc2cn(CC(O)(Cn3cncn3)c3ccc(F)cc3F)nn2)cc1 (stereo not shown) [Compound 1D-2, 4-((1-(2-(2,4-difluorophenyl)-2-hydroxy-3-(1H-1,2,4-triazol-1-yl)propyl)-1H-1,2,3-triazol-4-yl)methoxy)benzaldehyde]
MIC50 (C. tropicalis ATCC 750): 2 µg/mL (≈ 4.54 µM)
MIC50 (C. glabrata ATCC 90030): 1 µg/mL (≈ 2.27 µM)
MIC50 (C. krusei ATCC 6258): 64 µg/mL (≈ 145 µM)
MIC50 (C. albicans ATCC 24433): 0.5 µg/mL (≈ 1.14 µM)
MIC50 (C. neoformans ATCC 34664): 4 µg/mL (≈ 9.08 µM)
MIC50 (A. fumigatus ATCC 46645): > 128 µg/mL
MIC50 [1]: > 128 µg/mL
MIC50 (A. niger ATCC 16404): > 128 µg/mL

CC(=O)c1ccc(OCc2cn(CC(O)(Cn3cncn3)c3ccc(F)cc3F)nn2)cc1 (stereo not shown) [Compound 1D-3, 1-(4-(4-Acetylphenyloxy)methyl-1H-1,2,3-triazol-1-yl)-2-(2,4-difluorophenyl)-3-(1H-1,2,4-triazol-1-yl)propan-2-ol]
MIC50 (C. tropicalis ATCC 750): 4 µg/mL (≈ 8.8 µM)
MIC50 (C. glabrata ATCC 90030): 1 µg/mL (≈ 2.2 µM)
MIC50 (C. krusei ATCC 6258): 64 µg/mL (≈ 141 µM)
MIC50 (C. albicans ATCC 24433): 0.5 µg/mL (≈ 1.1 µM)
MIC50 (C. neoformans ATCC 34664): 4 µg/mL (≈ 8.8 µM)
MIC50 (A. fumigatus ATCC 46645): > 128 µg/mL
MIC50 [1]: > 128 µg/mL
MIC50 (A. niger ATCC 16404): > 128 µg/mL

CC(=O)Nc1ccc(OCc2cn(CC(O)(Cn3cncn3)c3ccc(F)cc3F)nn2)cc1 (stereo not shown) [Compound 1D-4, 1-(4-(4-Acetylaminophenyloxy)methyl-1H-1,2,3-triazol-1-yl)-2-(2,4-difluorophenyl)-3-(1H-1,2,4-triazol-1-yl)propan-2-ol]
MIC50 (C. tropicalis ATCC 750): > 128 µg/mL
MIC50 (C. glabrata ATCC 90030): 32 µg/mL (≈ 68.2 µM)
MIC50 (C. krusei ATCC 6258): > 128 µg/mL
MIC50 (C. albicans ATCC 24433): 32 µg/mL (≈ 68.2 µM)
MIC50 (C. neoformans ATCC 34664): > 128 µg/mL
MIC50 (A. fumigatus ATCC 46645): > 128 µg/mL
MIC50 [1]: > 128 µg/mL
MIC50 (A. niger ATCC 16404): > 128 µg/mL
